Results: patent publication US20250051290A1, “NOVEL COMPOUND FOR IMPROVING SLEEP OR USE THEREOF” (Ajou University Industry-Academic Cooperation Foundation, priority 2021, published 2025)

Target: T1, adenosine A1 receptor (Homo sapiens, UniProt P30542)
T1 construct: expressed in transfected cells; cells use mitochondrial aequorin
T1 sequence (P30542 1-326): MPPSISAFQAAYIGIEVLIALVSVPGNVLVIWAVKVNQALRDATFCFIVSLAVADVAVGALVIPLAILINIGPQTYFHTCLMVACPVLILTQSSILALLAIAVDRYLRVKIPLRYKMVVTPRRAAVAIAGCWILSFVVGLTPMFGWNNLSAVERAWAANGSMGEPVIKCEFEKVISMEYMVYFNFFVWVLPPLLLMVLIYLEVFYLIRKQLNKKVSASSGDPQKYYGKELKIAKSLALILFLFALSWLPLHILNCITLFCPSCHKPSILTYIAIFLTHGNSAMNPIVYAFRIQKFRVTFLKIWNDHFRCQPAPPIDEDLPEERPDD
Test: Adenosine A1 receptor agonistic activity, aequorin calcium luminescence in A1-overexpressing cell line
Format: cell-based
Conditions: for activation at 10 µM: compound concentration 10 μM; for activation at 10 µM / activation at 50 µM: read-out: agonistic effect on A1 receptor, response relative to adenosine as 100%; for activation at 50 µM: compound concentration 50 μM
From the text: The intracellular endoplasmic reticulum has the function of storing calcium ions and releasing them when necessary. It is responsible for managing and maintaining the overall physiological activities of the human body, such as contracting muscles and promoting hormone secretion by releasing calcium ions. This mechanism has been applied as a universal and accurate method to study the activity of G protein-coupled receptors (GPCRs), and the method of measuring calcium ions, which are the final measurement target, has been developed into various methods including fluorescent substances. The present inventors tried to use chemical luminescence through aequorin to evaluate the agonistic efficacy of the compounds subject to development. To this end, a cell line overexpressing an adenosine receptor (adenosine receptor subtype 1, A1), which targets calcium ions released from the intracellular endoplasmic reticulum, was used, and the concentration of calcium ions released instantaneously was measured using a cell function screening system based on the luminescence phenomenon through mitochondrial aequorin.
Cells into which an A1 receptor gene was inserted through transformation were washed with 10 ml of PBS after 48 hours of culture, and then the cells were isolated and centrifuged at 1,000×g for 5 minutes. The precipitated cells were treated with a basic buffer solution (Dulbecco's Modified Eagle's Medium (DMEM)/HAM's F12 without phenol red, with L-glutamate, 15 mM hydroxyethyl piperazine ethane sulfonic acid (HEPES), pH 7.0, 0.1% bovine serum albumin (BSA)), coelenterazine h was added to a concentration of 2×10^6 cells/ml, and then light was blocked. The cells were allowed to react with coelenterazine h using a rotator at room temperature. After four hours of reaction, the reaction mixture was diluted 10 times with a basic buffer solution to adjust the concentration to 2×10^5 cells/ml and allowed to stand for 60 minutes under the same conditions as before.
To confirm the agonistic activity of the novel compounds of the present invention, the previously prepared cells were plated in a 96-well black plate (Corning 3915) containing adenosine ([…]-4.57 nM) at 50 µl/well (5,000 cells/well), and then the resulting signal value was measured. To confirm the calcium signal changing activity (agonistic activity) of the compounds subject to development, the prepared cells were plated in a 96-well plate containing 50 μl/well of the compound sample at 50 μl/well and allowed to react for 30 minutes. Thereafter, 50 μl/well of adenosine (3 μM) was injected to confirm the reaction. The light emitted due to cell activity was measured and recorded using a Mithras 960 MultiLabel Reader. The measured value (area under the curve (AUC) integrated signal) was expressed in relative light units (RLU). To ensure the accuracy of the experimental data, the experiment was performed at at least two concentrations ([…] and 50 μM) with three samples of the same compound, and EC50 values calculated when necessary were compared and analyzed with the values obtained through at least three experiments.
As a result, the results shown in Table 1 below and FIG. 5 were obtained. Each value was obtained by assuming the response of […] adenosine as 100% and converting the ratio into percentage. The greater the value, the greater the agonistic effect.

Oc1cc2nc(NC3CC3)nc(N3CCCC3)c2cc1O [AR-025, 2-(Cyclopropylamino)-4-(pyrrolidin-1-yl)quinazoline-6,7-diol]
activation at 10 µM: -1.6% | activation at 50 µM: 0.4%

CCNc1nc(NCc2ccco2)c2ccccc2n1 [AR-001, N^2-ethyl-N^4-(furan-2-ylmethyl)quinazoline-2,4-diamine]
activation at 10 µM: 23.7% | activation at 50 µM: 246%

c1ccc2c(N3CCCC3)nc(N3CCCC3)nc2c1 [AR-021, 2,4-di(pyrrolidin-1-yl)quinazoline]
activation at 10 µM: 1.8% | activation at 50 µM: 0.1%

c1ccc2c(N3CCCC3)nc(NCc3ccc4c(c3)OCO4)nc2c1 [AR-004, N-(benzo[d][1,3]dioxol-5-ylmethyl)-4-(pyrrolidin-1-yl)quinazolin-2-amine]
activation at 10 µM: -0.7% | activation at 50 µM: -0.8%

CN(C)c1nc(NCc2ccco2)nc2ccccc12 [AR-002, N^2-(furan-2-ylmethyl)-N^4,N^4-dimethylquinazoline-2,4-diamine]
activation at 10 µM: -1.5% | activation at 50 µM: 1.3%

c1coc(CNc2nc(NC3CC3)nc3ccccc23)c1 [AR-006, N^2-cyclopropyl-N^4-(furan-2-ylmethyl)quinazoline-2,4-diamine]
activation at 10 µM: 170% | activation at 50 µM: 289% | EC50 (dose-response, FIG. 5): 6.95 µM

CCNc1nc(NCc2ccco2)c2cc(OC)c(OC)cc2n1 [AR-018, N^2-ethyl-N^4-(furan-2-ylmethyl)-6,7-dimethoxyquinazoline-2,4-diamine]
activation at 10 µM: 1% | activation at 50 µM: 0%

CC(Nc1nc(NC2CC2)nc2ccccc12)c1ccccc1 (stereo not drawn) [AR-003, N^2-cyclopropyl-N^4-(1-phenylethyl)quinazoline-2,4-diamine]
activation at 10 µM: -1.1% | activation at 50 µM: 3.9%

CCNc1nc(NC(C)c2ccccc2)c2ccccc2n1 (stereo not drawn) [AR-011, N^2-ethyl-N^4-(1-phenylethyl)quinazoline-2,4-diamine]
activation at 10 µM: -0.4% | activation at 50 µM: 42.8%

CC(Nc1nc(NCc2ccco2)nc2ccccc12)c1ccccc1 (stereo not drawn) [AR-012, N^2-(furan-2-ylmethyl)-N^4-(1-phenylethyl)quinazoline-2,4-diamine]
activation at 10 µM: -0.6% | activation at 50 µM: 6.4%

CCNc1nc(N2CCCC2)c2cc(OC)c(OC)cc2n1 [AR-020, N-ethyl-6,7-dimethoxy-4-(pyrrolidin-1-yl)quinazolin-2-amine]
activation at 10 µM: 0.3% | activation at 50 µM: -0.7%

CN(C)c1nc(NC2CC2)nc2ccccc12 [AR-009, N^2-cyclopropyl-N^4,N^4-dimethylquinazoline-2,4-diamine]
activation at 10 µM: -1.2% | activation at 50 µM: 14.6%

CN(C)c1nc(NCc2ccco2)nc2cc(O)c(O)cc12 [AR-026, 4-(Dimethylamino)-2-((furan-2-ylmethyl)amino)quinazoline-6,7-diol]
activation at 10 µM: -0.6% | activation at 50 µM: 0%

c1ccc2c(N3CCCC3)nc(NC3CC3)nc2c1 [AR-016, N-cyclopropyl-4-(pyrrolidin-1-yl)quinazolin-2-amine]
activation at 10 µM: 3.7% | activation at 50 µM: 101%

CCNc1nc(N(C)C)c2ccccc2n1 [AR-008, N^2-ethyl-N^4,N^4-dimethylquinazoline-2,4-diamine]
activation at 10 µM: 0.4% | activation at 50 µM: 2.6%

CCNc1nc(NCc2ccco2)c2cc(O)c(O)cc2n1 [AR-028, 2-(Ethylamino)-4-((furan-2-ylmethyl)amino)quinazoline-6,7-diol]
activation at 10 µM: -0.3% | activation at 50 µM: -1.1%

COc1cc2nc(NC3CC3)nc(N3CCCC3)c2cc1OC [AR-017, N-cyclopropyl-6,7-dimethoxy-4-(pyrrolidin-1-yl)quinazolin-2-amine]
activation at 10 µM: 0.6% | activation at 50 µM: 0.9%

CCNc1nc(N2CCCC2)c2cc(O)c(O)cc2n1 [AR-027, 2-(Ethylamino)-4-(pyrrolidin-1-yl)quinazoline-6,7-diol]
activation at 10 µM: 0.2% | activation at 50 µM: 1.1%

CC(Nc1nc(NCc2ccc3c(c2)OCO3)nc2ccccc12)c1ccccc1 (stereo not drawn) [AR-013, N^2-(benzo[d][1,3]dioxol-5-ylmethyl)-N^4-(1-phenylethyl)quinazoline-2,4-diamine]
activation at 10 µM: 0.8% | activation at 50 µM: -0.4%

CN(C)c1nc(NCc2ccc3c(c2)OCO3)nc2ccccc12 [AR-010, N^2-(benzo[d][1,3]dioxol-5-ylmethyl)-N^4,N^4-dimethylquinazoline-2,4-diamine]
activation at 10 µM: 2.1% | activation at 50 µM: 240%

CCNc1nc(N2CCCC2)c2ccccc2n1 [AR-014, N-ethyl-4-(pyrrolidin-1-yl)quinazolin-2-amine]
activation at 10 µM: -0.9% | activation at 50 µM: 25.1%

c1coc(CNc2nc(NCc3ccco3)c3ccccc3n2)c1 [AR-005, N^2,N^4-bis(furan-2-ylmethyl)quinazoline-2,4-diamine]
activation at 10 µM: 0.2% | activation at 50 µM: 251%

CN(C)c1nc(N2CCCC2)c2ccccc2n1 [AR-022, N,N-dimethyl-4-(pyrrolidin-1-yl)quinazolin-2-amine]
activation at 10 µM: -0.5% | activation at 50 µM: 0%

O=C(NCCNc1nc(N2CCCC2)c2ccccc2n1)c1ccc(O)c(O)c1 [AR-024, 3,4-Dihydroxy-N-(2-((4-(pyrrolidin-1-yl)quinazolin-2-yl)amino)ethyl)benzamide]
activation at 10 µM: -0.7% | activation at 50 µM: 0.1%

CC(Nc1nc(N2CCCC2)c2ccccc2n1)c1ccccc1 (stereo not drawn) [AR-023, N-(1-phenylethyl)-4-(pyrrolidin-1-yl)quinazolin-2-amine]
activation at 10 µM: 1.7% | activation at 50 µM: 47.8%

COc1cc2nc(NCc3ccco3)nc(N(C)C)c2cc1OC [AR-019, N^2-(furan-2-ylmethyl)-6,7-dimethoxy-N^4,N^4-dimethylquinazoline-2,4-diamine]
activation at 10 µM: -0.3% | activation at 50 µM: 0%

c1coc(CNc2nc(N3CCCC3)c3ccccc3n2)c1 [AR-015, N-(furan-2-ylmethyl)-4-(pyrrolidin-1-yl)quinazolin-2-amine]
activation at 10 µM: 28.6% | activation at 50 µM: 219%

c1coc(CNc2nc(NCc3ccc4c(c3)OCO4)nc3ccccc23)c1 [AR-007, N^2-(benzo[d][1,3]dioxol-5-ylmethyl)-N^4-(furan-2-ylmethyl)quinazoline-2,4-diamine]
activation at 10 µM: -1.1% | activation at 50 µM: 12%
